Source: PubChem BioAssay (NCI)
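48-hour exposure; five concentrations; linearly interpolated endpoints. TGI marks complete inhibition of growth.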

Experiments:
Test in all cases: inhibition of tumour cell growth, NCI panel, 48 h
[1] = system: SF-295 CNS
[2] = system: TK-10 renal
[3] = system: RPMI-8226 leukemia
[4] = system: ACHN renal
[5] = system: UO-31 renal
[6] = system: HCT-116 colon
[7] = system: RXF 393 renal
[8] = system: EKVX NSCLC
[9] = system: NCI-H23 lung
[10] = system: SNB-19 CNS
[11] = system: PC-3 prostate
[12] = system: COLO 205 colon
[13] = system: CAKI-1 renal
[14] = system: T-47D breast
[15] = system: SN12C renal
[16] = system: HCT-15 colon
[17] = system: DU-145 prostate
[18] = system: M14 melanoma
[19] = system: NCI-H522 lung
[20] = system: SR leukemia
[21] = system: MDA-MB-231 breast
[22] = system: BT-549 breast
[23] = system: MDA-N
[24] = system: OVCAR-5 ovarian
[25] = system: MOLT-4 leukemia
[26] = system: HS 578T breast
[27] = system: A549 NSCLC
[28] = system: U251 CNS
[29] = system: HOP-62 NSCLC
[30] = system: SK-MEL-5 melanoma
[31] = system: SNB-75 CNS
[32] = system: LOX IMVI melanoma
[33] = system: MALME-3M melanoma
[34] = system: SF-539 CNS
[35] = system: KM12 colon
[36] = system: NCI-H460 lung
[37] = system: SK-MEL-28 melanoma
[38] = system: 786-0 renal
[39] = system: MCF7 breast
[40] = system: MDA-MB-435
[41] = system: HT29 colon
[42] = system: SF-268 CNS
[43] = system: OVCAR-3 ovarian
[44] = system: OVCAR-4 ovarian
[45] = system: K-562 leukemia
[46] = system: IGROV1 ovarian
[47] = system: CCRF-CEM leukemia
[48] = system: SK-OV-3 ovarian
[49] = system: SK-MEL-2 melanoma
[50] = system: UACC-62 melanoma
[51] = system: NCI/ADR-RES ovarian
[52] = system: OVCAR-8 ovarian
[53] = system: HOP-92 NSCLC
[54] = system: A498 renal
[55] = system: SW-620 colon

Measured: TGI

CC(C)(C)c1ccc(O)c(C[N+](C)(C)C)c1
> 100 µM: [1] | [2] | [3] | [4] | [5] | [6] | [7] | [8] | [9] | [10] | [11] | [12] | [13] | [14] | [15] | [16] | [17] | [18] | [19] | [20] | [21] | [22] | [23] | [24] | [25] | [26] | [27] | [28] | [29] | [30] | [31] | [32] | [33] | [34] | [35] | [36] | [37] | [38] | [39] | [40] | [41] | [42] | [43] | [44] | [45] | [46] | [47] | [48] | [49] | [50] | [51] | [52] | [53] | [54] | [55]
